Source: patent US20220226484A1, “THERAPEUTIC PEPTIDES” (COHBAR, INC., priority 2019, published 2022)
Positions of bridges follow the written chain, without caps; N, C: chain ends. Non-standard residues stand in square brackets, D forms with d. Primed or numbered codes have the meaning given here. Chains are numbered I, II in the order given. No end group written: not given here. PEG12′ = not defined here

Assays:
[1] = test system: SH-SY5Y Neuroblastoma Cells Exposed to Staurosporine; test: ATP levels in cells exposed to staurosporine; format: cell-based, human; conditions: peptide 10 μM with staurosporine, 18-20 hours; <100% cytoprotective, >100% synergistic
Description: Peptides were initially prepared as 10 mM stock in DMSO and tested at a final concentration of 10 μM (0.1% DMSO). […] […] CellTiter-Glo® Assay kit was purchased from Promega. SH-SY5Y human neuroblastoma cell line was purchased from American Type Culture Collection (Manassas, Va.) and licensed from Memorial Sloan-Kettering Cancer Center (New York, N.Y.). SH-SY5Y cells were grown in DMEM/F12 medium supplemented with 10% FBS with 100 IU/ml penicillin and 100 μg/ml streptomycin. Cultures were maintained at 37° C. in a humidified atmosphere of 5% CO2/95% air. SH-SY5Y cells were seeded at 30,000 cells per well on 96-well plates. […] ATP levels were determined using a CellTiter-Glo Assay kit (Promega) according to the manufacturer's instructions. Luminescence for each sample well on the plate was measured using a Cytation 3 plate reader (BioTek, Winooski, Vt.). […] A value less than 100% is indicative of a cytoprotective effect, while a value greater than 100% is indicative of a synergistic effect on viability.

A172 Cells = test: Cell viability, PrestoBlue Assay; format: cell-based, human; conditions: peptide 10 μM, 18-20 hours, relative to 0.1% DMSO control
Description: The effect of the peptides on cell viability can be assessed in cultured cells using suitable assay of viability such as the PrestoBlue® assay (Thermo Fisher Scientific, Waltham, Mass.). Peptides were initially prepared as 10 mM stock in DMSO and tested at a final concentration of 10 μM (0.1% DMSO). […] PrestoBlue Assay Reagent was purchased from Thermo Fisher Scientific. A172 human brain glioblastoma cell line was purchased from American Type Culture Collection (Manassas, Va.). A172 cells were grown in DMEM supplemented with 10% FBS with 100 IU/ml penicillin and 100 μg/ml streptomycin. Cultures were maintained at 37° C. in a humidified atmosphere of 5% CO2/95% air. A172 cells were seeded at 8,000 cells per well on 96-well plates. […] Cell viability was determined using a PrestoBlue Assay reagent […] according to the manufacturer's instructions. Absorption for each sample well on the plate was measured using a Cytation 3 plate reader at 560 nm and 590 nm (BioTek, Winooski, Vt.). Activity was calculated relative to 0.1% DMSO untreated control. Treatment with 0.1% DMSO alone was used as the cell viability activity control. The relative standard deviation of the DMSO control was <5%.

[2] = test system: A172 human brain glioblastoma cell line; test: Caspase 3/7 activity (Caspase-Glo 3/7 Assay); format: cell-based; conditions: peptide 10 μM, 18-20 hours, relative to 0.1% DMSO control
Description: The effect of the peptides on cell death/survival can be assessed using a caspase-3/7 assay in cultured cells. Peptides were dissolved at 10 mM in DMSO as stock solutions for use at a final concentration of 10 μM. […] Caspase-Glo 3/7 Assay Reagent was purchased from Promega (Madison, Wis.). A172 human brain glioblastoma cell line was purchased from American Type Culture Collection (Manassas, Va.). A172 cells were grown in DMEM supplemented with 10% FBS with 100 IU/ml penicillin and 100 μg/ml streptomycin. Cultures were maintained at 37° C. in a humidified atmosphere of 5% CO2/95% air. A172 cells were seeded at 8,000 cells per well on 96-well plates. […] Caspase 3/7 activity was determined using a Caspase-Glo 3/7 Assay kit (Promega) according to the manufacturer's instructions. Luminescence for each sample well on the plate was measured using a Cytation 3 plate reader (BioTek, Winooski, Vt.). Activity was calculated relative to 0.1% DMSO control.

[3] = test system: SH-SY5Y Neuroblastoma Cells; test: ATP levels (CellTiter-Glo); format: cell-based, human; conditions: peptide 10 μM, 18-20 hours, relative to 0.1% DMSO treated control
Description: The effect of the peptides on cellular metabolism can be assessed using an assay of ATP levels in cultured cells such as human neuroblastoma cells. Peptides were initially prepared as 10 mM stock in DMSO and used at a final concentration of 10 μM (0.1% DMSO). […] CellTiter-Glo® Assay kit was purchased from Promega. SH-SY5Y human bone marrow neuroblastoma cell line was purchased from American Type Culture Collection (Manassas, Va.) and licensed from Memorial Sloan-Kettering Cancer Center (New York, N.Y.). SH-SY5Y cells were grown in DMEM/F12 medium supplemented with 10% FBS with 100 IU/ml penicillin and 100 μg/ml streptomycin. Cultures were maintained at 37° C. in a humidified atmosphere of 5% CO2/95% air. SH-SY5Y cells were seeded at 30,000 cells per well on 96-well plates. […] ATP levels were determined using a CellTiter-Glo Assay kit (Promega) according to the manufacturer's instructions. Luminescence for each sample well on the plate was measured using a Cytation 3 plate reader (BioTek, Winooski, Vt.). Activity was calculated relative to 0.1% DMSO treated control. The relative standard deviation of the result for the 0.1% DMSO treated control was <5%.

[4] = test system: WI-38 cells (human fetal lung fibroblast cells); test: Fibroblast-to-myofibroblast transition assay, pro-collagen I alpha 1 expression; format: cell-based; conditions: 10 μM peptide and 5 ng/ml TGF-β, 48 h, cell lysates
Description: The effect of the peptides on fibrosis can be assessed in vitro using a fibroblast-to-myofibroblast transition (FMT) assay and monitoring pro-collagen I alpha 1 expression produced by cultured cells such as human fetal lung fibroblast cells. Peptides were initially prepared as 10 mM stock solutions in DMSO or 1 mM stock in H2O and were used at a final concentration of 10 μM (0-0.1% DMSO). Transforming Growth Factor beta (TGF-β) was used as a potent inducer of FMT as measured by increased pro-collagen I alpha 1 expression. Human WI-38 cell line was purchased from American Type Culture Collection (Manassas, Va.). WI-38 cells were seeded in complete medium (DMEM/high glucose (4 g/L)+10% Fetal Bovine Serum+1% penicillin/streptomycin) at 40,000 cells/well on 48-well plates and placed at 37° C. in a humidified atmosphere of 5% CO2/95% air. The next day, the medium was removed, cells were rinsed twice with HBSS, and the medium replaced with Serum Restricted Medium (DMEM/high glucose (4 g/L)+0.2% Fetal Bovine Serum+1% penicillin/streptomycin). The cultures were placed at 37° C. in a humidified atmosphere of 5% CO2/95% air overnight. Following 24 h in Serum Restricted Medium, the medium was removed, and the following was added: fresh Serum Restricted Medium alone (no TGF-β control); fresh Serum Restricted Medium containing 5 ng/ml TGF-β (TGF-β control); or fresh Serum Restricted Medium containing 10 μM peptide and 5 ng/ml TGF-β. Cells were incubated for 48 h at 37° C. in a humidified atmosphere of 5% CO2/95% air, washed twice with cold HBSS and immediately lysed. Lysis and determination of pro-collagen I alpha 1 concentrations in the cell lysates were performed using a Pro-Collagen I Alpha 1 ELISA kit (Abcam; Cambridge, Mass.) according to the manufacturer's instructions; absorbance was measured using a Cytation 3 plate reader at 450 nm (BioTek, Winooski, Vt.).

| Substance | Percent of ATP Reduction Induced by Control [1] [%] | PrestoBlue Assay, Percent of Control Activity (A172 Cells) [%] | Caspase 3/7 Activity, Percent of Control Activity [2] [%] | ATP Levels, % Control [3] [%] | Procollagen I Alpha 1 Mean (SEM) [4] |
| --- | --- | --- | --- | --- | --- |
| MRVIRMCLGVGLLGDLAG [SEQ ID NO: 2] | 104.8 | 100.0 | 109.3 | 99.6 | – |
| RVIRMCLGVGLLGDL(dA)G (RVIRMCLGVGLLGDL[dA]G) [SEQ ID NO: 4] | 104.1 | 97.7 | 112.4 | 104.7 | – |
| RVIRMCLGVGLLGDLAG [SEQ ID NO: 3] | 108.4 | 98.9 | 109.4 | 101.5 | – |
| RVIRMCLGVGLLGDLAGK{PEG12} (chain 1 RVIRMCLGVGLLGDLAGK(PEG12′); chain 2 RVIRMCLGVGLLGDLAGK(PEG12′); disulfide I:6-II:6) [SEQ ID NO: 28] | – | – | – | – | 1830 (507) pg/mL |
| RVIRMCLNVGLLGEL(dA)G [SEQ ID NO: 5] (RVIRMCLNVGLLGEL[dA]G) | 108.0 | 96.9 | 107.0 | 100.8 | 4200 (597) pg/mL |
| RVIRMCLNVGNLGEL(dA)G (RVIRMCLNVGNLGEL[dA]G) [SEQ ID NO: 10] | – | – | – | – | 4460 (235) pg/mL |
